Values quoted from earlier work in patent US7204982B2, “Compositions and methods for treatment and detection of multiple cancers” (The Regents of the University of California, priority 2002, dated 2007).
Where a name gives a salt, the structure may show the parent alone.

Assays:
malignant gliomas = conditions: high doses, orally administered; Couldwell et al. 1996
[1] = tested on: human glioblastoma cell lines (U87, U373, and U138); conditions: cell lines lack detectable estrogen receptor expression

CC/C(=C(\c1ccccc1)c1ccc(OCCN(C)C)cc1)c1ccccc1 [tamoxifen, (Z)-2[p[(1,2-diphenyl-1-butenyl)phenoxyl]-N,N-dimethylamine citrate]
clinical benefit (malignant gliomas): of benefit in some patients with malignant gliomas
cytotoxicity [1]: responsive to tamoxifen cytotoxicity
